Test results as given in patent US20230190870A1, “Method for Treating Lysosomal Storage Diseases with Histatin Peptides” (THE BOARD OF TRUSTEES OF THE UNIVERSITY OF ILLINOIS, priority 2020, published 2023).
“Also recorded” adds a separate entry of the source. Square brackets hold non-standard residues; d marks the D form. Peptide text beside a SMILES is read from it. pS = N[C@@H](COP(=O)(O)O)C(=O)O

What was measured:
[1] = Circular dichroism secondary structure analysis (DichroWeb); format: physicochemical
Procedure: Circular Dichroism (CD). CD analysis was performed on a Jasco 815 CD spectrometer at room temperature. TMEM97 (108-176) and Hst1 full-length peptides were prepared as 10 mM stock in 25% DMSO and water, respectively, and diluted to 0.15 mg/mL final concentration in 10 mM […] buffer. A total of 400 μL of each sample was added into a 1 mm quartz sample cell, and CD spectra were recorded from 260 nm to 190 nm wavelength. Data points were measure in 0.5 nm wavelength step at a scanning speed of 100 nm/minute. A total of five spectra were acquired for each sample and averaged. […] buffer without peptide was used as a control curve, which was subsequently subtracted from the CD spectra of peptide samples. The resulting buffer control subtracted CD intensity row data in millidegrees were submitted to DichroWeb and fitted with multiple embedded models and converted to mean residue ellipticity.
Subsequently, the hypothesis that interaction between Hst1 and TMEM97 could affect the structure of each protein was tested. Also, the secondary structure of Hst1 and TMEM97 was tested in solution using CD measurements. It was noted that Hst1 alone is mostly disordered (over 50%) with some degree of β-strand, while TMEM97 (108-176) contains some α-helical and β-strand regions with ˜34% disordered regions. According to CD spectra comparison, there seemed to be more secondary structures formed upon Hst1 binding to TMEM97 (108-176).

[2] = test system: human corneal epithelial (HCE) cells; experiment: Boyden chamber cell migration assay; format: cell-based
Procedure: Transfection/Knock-Down of TMEM97. Sub-confluent monolayers of HCE cells in grown in 35-mm six-well plates were transfected with reaction mixtures composed of 100 pmol of small interfering RNA (siRNA) to TMEM97 (Santa Cruz Biotechnology; Dallas, Tex.) for 48 hours and 5 μL of transfection reagent sold under the tradename LIPOFECTAMINE® 2000 (Invitrogen; Carlsbad, Calif.) in culture medium sold under the tradename OPTI-MEMO media (Gibco Life Technologies; Grand Island, N.Y.). Complexes were incubated for 20 minutes at 24° C. and then added to cells at 37° C. Incubation was continued for 24 to 48 hours at 37° C. in 5% CO2. Knock-down (KD) of TMEM97 was confirmed by western blot analysis using a rabbit anti-TMEM97 antibody (Novus Bio.; Littleton, Colo.).
Cell Migration Assay. HCE migration assays were performed in a 48-well micro-chemotaxis chamber (Neuro Probe, Inc.; Cabin John, Md.), following the manufacturer's instructions and following a modification of prior reports. Polyester membranes (Neuro Probe, Inc.; Gaithersburg, Md.) with 12 μm pores were used. Cells were incubated with Hst1 for 6 hours, harvested using Versene (Life Technologies, Corp.; Grand Island, N.Y.), resuspended in RPMI-1640 medium (Life Technologies, Corp.; Grand Island, N.Y.) containing 0.5% FBS. The bottom chamber was loaded with RPMI-1640 media containing 2% FBS, and the filter was laid over the media. […]

[3] = test system: mouse cerebellar tissue (NPC mouse model); experiment: Lipid levels in Hst1-treated NPC mouse cerebellar tissue
Text: In this respect, in addition to reducing the accumulation of cholesterol in liver tissue, histatin peptides may also be used to alter fatty acid and cholesterol metabolism in neuronal tissue thereby reducing changes associated with neurodegeneration.

[4] = test system: Human corneal epithelial cells; experiment: Calcium Green-2 calcium signaling in human corneal epithelial cells; format: cell-based
Procedure: Calcium Signaling. Human corneal epithelial cells were treated with Hst1 or Hst5, stained with Calcium Green-2, and relative fluorescence intensity was monitored at 1, 2 and 4 hours. […] This normalization of cellular calcium levels seen after toxicity from benzalkonium chloride treatment is analogous to toxic effects seen in chronic pain and other conditions. As such, histatin peptides may of use in the amelioration of chronic pain.

[5] = test system: Human corneal epithelial cells; experiment: Cell viability of BAK-treated human corneal epithelial cells; format: cell-based; conditions: benzalkonium chloride (BAK) treatment
Text: Apoptosis. […] BAK and hOsm are standard inducers of corneal epithelial and neuronal cell death and toxicity, phenomena which are associated with ocular surface pain and chronic pain syndromes.

[6] = CD, fraction of secondary structure

CC(C)C[C@H](NC(=O)[C@H](Cc1ccc(O)cc1)NC(=O)[C@H](CC(N)=O)NC(=O)[C@H](CO)NC(=O)CNC(=O)[C@H](Cc1ccc(O)cc1)NC(=O)[C@H](CC(=O)O)NC(=O)CNC(=O)[C@H](Cc1ccc(O)cc1)NC(=O)[C@H](Cc1ccccc1)NC(=O)[C@@H]1CCCN1C(=O)[C@H](Cc1ccccc1)NC(=O)[C@H](CCC(=O)O)NC(=O)[C@H](CCCNC(=N)N)NC(=O)[C@H](Cc1c[nH]cn1)NC(=O)[C@H](CO)NC(=O)[C@H](Cc1c[nH]cn1)NC(=O)[C@H](Cc1c[nH]cn1)NC(=O)[C@H](CCCCN)NC(=O)[C@H](CCC(=O)O)NC(=O)[C@H](Cc1c[nH]cn1)NC(=O)[C@H](Cc1ccccc1)NC(=O)[C@H](CCCCN)NC(=O)[C@H](CCCNC(=N)N)NC(=O)[C@H](CCCNC(=N)N)NC(=O)[C@H](Cc1ccc(O)cc1)NC(=O)CNC(=O)[C@H](Cc1c[nH]cn1)NC(=O)[C@H](Cc1c[nH]cn1)NC(=O)[C@H](CCCNC(=N)N)NC(=O)[C@H](CCCCN)NC(=O)[C@H](CCC(=O)O)NC(=O)[C@H](Cc1c[nH]cn1)NC(=O)[C@H](COP(=O)(O)O)NC(=O)[C@@H](N)CC(=O)O)C(=O)N[C@@H](Cc1ccc(O)cc1)C(=O)N[C@@H](CC(=O)O)C(=O)N[C@@H](CC(N)=O)C(=O)O [Hst1] (H-D[pS]HEKRHHGYRRKFHEKHHSHREFPFYGDYGSNYLYDN-OH; N-terminus and C-terminus assumed)
disordered regions ([1]; CD in solution): over 50% | Helix [1, 6]: 0.02 | Strand [1, 6]: 0.29 | Turns [1, 6]: 0.15 | Unordered [1, 6]: 0.54 | transmigration response in TMEM97 KD cells ([2]; siRNA knock-down of TMEM97): inhibits; also recorded: abolished this response | cellular transmigration ([2]; toward 2% FBS stimulus): dose-dependent increase in cellular transmigration | ceramides (Cer NS, HexCer NS, SM) ([3]; 7-week-old NPC mouse model): significantly increasing | gangliosides (GM3, GM2 and GM1) ([3]; 7-week-old NPC mouse model): significantly increasing | phosphatidylinositol 4,5-bisphosphate (PIP2; 20:4/18:0) levels ([3]; NPC1−/− mouse, 9-week-old): significantly decrease | calcium signaling (relative fluorescence intensity) ([4]; 1, 2 and 4 hours): increases calcium signaling | elevated calcium levels after benzalkonium chloride ([4]; cells treated with 0.001% BAK): reduced elevated calcium levels | BAK-induced loss of cell viability [5]: abrogated
